{"source": "patent US20110021640A1", "about": "(priority 2009, published 2011)", "biological_target": "T1, calf spleen adenosine deaminase (Bos taurus, UniProt P56658)", "T1 construct": "The calf spleen adenosine deaminase (Specific Activity of 178 Units/mg protein) is purchased from Sigma Chemical Company; purchased Sigma Chemical Company, St Louis, Mo; host or cells: calf spleen (tissue-derived enzyme)", "T1 sequence (P56658 1-363)": "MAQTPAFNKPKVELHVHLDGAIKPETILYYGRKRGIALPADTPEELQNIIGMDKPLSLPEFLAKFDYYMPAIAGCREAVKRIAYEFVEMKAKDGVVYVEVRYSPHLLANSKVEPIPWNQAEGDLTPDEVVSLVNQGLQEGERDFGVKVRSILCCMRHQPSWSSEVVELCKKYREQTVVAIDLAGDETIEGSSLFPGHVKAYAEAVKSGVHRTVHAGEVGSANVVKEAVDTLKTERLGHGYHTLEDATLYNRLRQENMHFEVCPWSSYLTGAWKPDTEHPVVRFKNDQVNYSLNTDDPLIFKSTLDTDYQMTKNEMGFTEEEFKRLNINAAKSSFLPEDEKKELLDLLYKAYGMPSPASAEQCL", "test": "Adenosine Deaminase (ADA) Assay, spectrophotometric at 265 nm", "format": "biochemical", "details": "Tris-HCl buffer 50 mM, pH 7.5, 25° C., adenosine substrate; dose-response (FIGS. 1 and 2); read-out: IC50, amount of the product per ml of the reaction mixture producing the enzyme inhibition by 50% (converted)", "procedure": "The enzyme catalyzes the following reaction:\nAdenosine+H2O→Inosine+NH3\nThe calf spleen adenosine deaminase (Specific Activity of 178 Units/mg protein) is purchased from Sigma Chemical Company, St Louis, Mo. The enzyme assay is carried out spectrophotometrically at 265 nm. The reaction mixture (in a 1-ml cuvette; diameter=1.0 cm) contains 0.9 ml of buffer (Tris-HCL buffer, 50 mM, pH 7.5), 25 μl of adenosine (2 mM), plus the enzyme, water and the extract to make 1 ml. The enzyme is added to start the reaction, and a decrease in absorbency at 265 nm is followed at 25° C. One unit of ADA activity is the amount of the enzyme that catalyzes 1 μmole of adenosine/min/ml of the reaction mixture.\nThe IC50 values have been determined by examining the dose-response effects of both products. The IC50 values represent the amount of the product per ml of the reaction mixture, producing the enzyme inhibition by 50%. In the enzyme assay, first a background reading is recorded on the chart for 1-2 min, followed by the addition of an appropriate amount of the enzyme to start the reaction, which is monitored spectrophotometrically.", "data": [{"smiles": "Oc1ccc(/C=C/c2cc(O)cc(O)c2)cc1", "note": "[resveratrol, 3,5,4′-trihydroxystilbene]", "values": [{"measurement": "IC50", "result": 50.8, "unit": "µM"}]}]}
